This note sets out measurements from patent US20170327556A1, “CARTILAGE-BINDING FUSION PROTEINS” (Merrimack Pharmaceuticals, Inc., priority 2013, published 2017).

Assay [1] deals with human ankle and knee cartilage explants. Description: In vitro joint disease model, explanted human cartilage: ^35S-sulfate incorporation. The assay is classed as cell-based. The following applies: for sulfated matrix biosynthesis in the absence of cytokines, 16 day combination with Dexamethasone: FIG. 14E black bars; for ^35S-sulfate incorporation, 16 D treatment: protein 16 days in combination with Anti-Infl-1, cytokines, versus Disease control. As for the experimental part: Human cartilage explants are harvested from the knee and ankle of human cadaver donors within 24 hours postmortem. Joints are aseptically dissected by a pathologist to assess gross cartilage morphology by the modified Collins scale (Kuettner, et al., Cartilage degeneration in different human joints. Osteoarthritis Cartilage. 2005; 13(2):93-103) and only grade 0 or 1 joints are used. Full-thickness knee cartilage surfaces are harvested from the femoral-patellar groove and chondyles using a scalpel. Full thickness ankle cartilage is harvested from the dome of talus, proximal area under dome of talus, head of the talus, tibial malleolus and fibular malleolus using a scalpel. Using a 4 mm diameter disposable biopsy punch, full thickness cartilage cores are punched from the cartilage surfaces keeping the superficial zone intact and used as explants in culture.
Explants are cultured in 96-well plates in 300 μL of low glucose DMEM (1× Gibco 11885-084) with added Penicillin-Streptomycin (1×, Gibco 15140-122), ascorbic acid (20 μg/mL, Sigma A4403), proline (400 μM, Sigma P5607-256), non-essential amino acids (1×, Sigma M7145), and HEPES ([…], Gibco 15630-080). Explants from 2-3 donors (4-6 explants per donor) are used for each treatment condition for a total explant number of 12-18 per condition. Donor ages were: 67 year male ankle, 71 year male ankle, 76 year female ankle, 59 year male knee, 34 year male knee, and 63 year female knee. Medium is changed every 2 days. On day 14, the medium is supplemented with 5 μCi/mL of ^35S-sodium sulfate (Perkin Elmer NEX041H005MC, 5 mCi).
Time points are taken at day 16 as follows. Explant tissue is washed four times for 30 min each (2 hr total) in 1 mM unlabeled sodium sulfate in PBS. Each explant is weighed wet and frozen at −20° C. until digestion. Tissue digestion is performed with Proteinase K (Roche cat #3115879001) and each explant is digested in 1 mL 500 μg/mL Proteinase K in 50 mM Tris-HCL, 1 mM calcium chloride pH=8.0 buffer at 60° C. overnight. Measurement of sGAG content and DNA content is performed using standard assay methods such as those described in Hoemann, 2004, Methods in Molecular Medicine: Cartilage and Osteoarthritis. Totowa, N.J.: Humana Press Inc.; p. 127-52. ^35S-sulfate content of the digested cartilage explants is quantified by mixing 20 μL of digest with 250 μL of scintillation fluid (Perkin Elmer cat #1200-439) and counting with A WALLAC 1450 MICROBETA TRILUX scintillation counter.
Treatments were given at the following concentrations: GF-Fus1 13.3 nM=135 ng/mL; and GF-Fus3 13.3 nM=181 ng/mL; Dexamethasone 100 nM=39.2 ng/mL. Growth factor and steroid treatment conditions included the cytokines TNF-alpha (R&D Systems, Cat#210-TA, 25 ng/mL), IL-6 (R&D Systems, Cat#206-IL, 50 ng/mL), and IL-6R alpha (R&D Systems, Cat#227-SR, 250 ng/mL) which were supplied in each medium change. GF-Fus1 and GF-Fus3 were added to fresh medium for either the first 8 days (8 D) or the entire 16 day culture duration (16 D), whereas Dexamethasone was added for the entire 16 days in all cases. Controls were either no cytokines (Healthy) or with cytokines alone (Disease). The outcomes measured from the cartilage explants at day 16 were ^35S-sulfate incorporation, DNA, and sGAG content, and sGAG released to media for all media changes.

The nature of assay [2]: ELISA binding of fusion proteins to heparan sulfate coated plates. As to conditions: 6x-Histidine-tagged proteins, FIG. 1A. As for the experimental part:
(§1) The specificity of binding of fusion proteins to the polysaccharides heparan sulfate and chondroitin sulfate may be determined by measuring the ability of the proteins to bind polysaccharides coated on an ELISA plate. Heparin Binding Plates (BD Biosciences) are coated with 50 μl of 2-10 μg/mL concentration of heparan sulfate or chondroitin sulfate (Sigma-Aldrich®) and incubated overnight at room temperature. Plates are washed with PBS and blocked with 250 μl of 0.2% gelatin in PBS for 1 hour at 37 C. Plates are then washed with PBS and tapped dry. 50 μl of protein in a dilution series is added to the wells and incubated for 2 hours at 37 C. The protein dilution series starts from 100 nM and includes ten additional three-fold dilutions in PBS, 0.2% gelatin and one blank (PBS, 0.2% gelatin only). After the plates are washed in PBS, 50 μl of anti-human IGF-1 (Abcam) at 1:250 in PBST is added and the plates are incubated for 1 hour rotating at room temperature. Plates are washed with PBST and 100 μl of 1:1000 anti-Rabbit-HRP (Cell Signaling Technology®) in PBST is added to each well and the plate is incubated for 1 hour at room temperature. […] The absorbance is measured at 450 nm and the resulting data is analyzed using GraphPad Prism® (GraphPad Software, San Diego, Calif.). […]

Assay [3] relates to bovine cartilage explants. Description: In vitro joint disease model (IL-1), explanted bovine cartilage: ^35S-sulfate incorporation. The assay is classed as cell-based. The following applies: 4 and 12 day treatments, IL-1, FIG. 16.
Assay [4] is described as follows: ELISA binding of fusion proteins to chondroitin sulfate coated plates. The following applies: 6x-Histidine-tagged proteins, FIG. 1B. Here is the method:
as §1

Take “GF-Fus3: C-terminal fusion IGF-1(LR3)-PRELP heparin binding domain”: the “synthesis of new sulfated cartilage matrix (^35S-sulfate incorporation)” value in assay [1] (13.3 nM, 16 days with cytokines, with and without Dexamethasone, versus Disease) is “upregulates”. Further, the “sulfated matrix biosynthesis in the absence of cytokines, 16 day combination with Dexamethasone” value in assay [1] (human knee chondyle cartilage) is “restores sulfated matrix biosynthesis to a level at or above healthy controls”. The “^35S-sulfate incorporation, 16 D treatment” value in assay [1] (FIGS. 14A-D) was “stimulated”. For the same substance, the “^35S-sulfate incorporation, 8 D treatment” value in assay [1] (protein first 8 days only, Anti-Infl-1 16 days, cytokines, measured final 48 hours of 16 day culture, FIGS. 14A-D) was “equivalent or superior potency to the continuously delivered proteins”. The “sulfated matrix biosynthesis in the absence of cytokines, protein removed for the final 8 days” value in assay [1] (with Dexamethasone 16 days, human knee chondyle cartilage, FIG. 14E white bars) was “sustains sulfated matrix biosynthesis at the level equivalent to continuous 16 day treatment”. Besides, in assay [2], the “binding to heparan sulfate” value was “bound”. In addition, in assay [3], the “cartilage matrix synthesis compared to GF-Fus3-His” value is on record as “equivalent”. Also, in assay [4], the “binding to chondroitin sulfate” value is given as “bound”.

With “GF-Fus1: IGF-1 variant polypeptide Long [R^3]-IGF-1, no fused binding domain; used 6x-Histidine-tagged as control [reference compound]”, in assay [1] (human knee chondyle cartilage), the “sulfated matrix biosynthesis in the absence of cytokines, 16 day combination with Dexamethasone” value is given as “restores sulfated matrix biosynthesis to a level at or above healthy controls”. Besides, in assay [1] (FIGS. 14A-D), the “^35S-sulfate incorporation, 16 D treatment” value was “stimulated”.
